# Data reported in US10071129B2, “Method for identifying bromodomain inhibitors” (WHITEHEAD INSTITUTE FOR BIOMEDICAL RESEARCH DANA-FARBER …, priority 2011, dated 2018).
# Tests used:
# cMyc = cMyc protein levels after JQ1 treatment of multiple myeloma cells; format: cell-based; conditions: multiple myeloma cells treated with JQ1
# Description: (§1) To test BET bromodomain inhibitors as a strategy to downregulate the cMyc transcriptional network and the mechanism of downregulation, multiple myeloma cells were treated with JQ1.
# BRD4 = BRD4 (Homo sapiens, UniProt O60885); conditions: MM.1S cells, 500 nM, 24 hours
# Description: Approximately 1×10^8 MM1S cells were treated with 500 nM JQ1 or DMSO for 24 hours and crosslinked with 1.1% formaldehyde (10× crosslink solution contains 11% formaldehyde, 50 mM Hepes pH7.3, 100 mM NaCl, 1 mM EDTA p118.0, 0.5 mM EGTA pH8.0) to the growth media followed by two washes with PBS. Cells were scraped and frozen in liquid nitrogen. Brd4 ChIP-PCR analysis was done on these cells following the protocol in Rahl et al. Cell 2010. In brief, 75 ul of Dynal magnetic beads (Sigma) were blocked with 0.5% BSA (w/v) in PBS. Magnetic beads were bound with 6.25 ug of Brd4 antibody (Bethyl Labs, A310-985A, lot A301-985A-1, FIG. 1A or Sigma, HPA015055-100, lot A31530, FIG. 1B). […]
# Brd4 ChIP and input DNA were analyzed using SYBR Green real-time PCR analysis (Applied Biosystems). […] Fold enrichment was determined from triplicate PCR reactions at five potential enhancer regions adjacent to the MYC gene in non-translocated cells (MYC_E1, MYC_E2, MYC_E3, MYC_E4, MYC_E5), the MYC transcriptional start site (MYC_TS1, MYC_TS2), IGH enhancer regions (IGH_E1, IGH_E2, IGH_E3, IGH_E4), and two negative regions upstream of the MYC enhancers (MYC_NR2, MYC_NR3) over input DNA using DDCt over the negative region MYC_NR1.
# multiple myeloma cells = experiment: Antiproliferative effect of JQ1 treatment in multiple myeloma cells; format: cell-based; conditions: multiple myeloma cells treated with JQ1
# Description: as §1
# cMyc target genes = experiment: Genome-wide expression of cMyc target genes and MYC transcription after JQ1 treatment; format: cell-based
# Description: as §1
structure (smiles),measurement,setting,value
"Cc1sc2c(c1C)C(c1ccc(Cl)cc1)=N[C@@H](CC(=O)OC(C)(C)C)c1nnc(C)n1-2 [JQ1, [(S)-4-(4-Chloro-phenyl)-2,3,9-trimethyl-6H-1-thia-5,7,8,9a-tetraaza-cyclopenta[e]azulen-6-yl]-acetic acid tert-butyl ester]",cMyc protein levels,cMyc,rapid downregulation of cMyc protein levels
same,BRD4 binding to IgH enhancers and the TSS (ChIP),BRD4,significantly depleted BRD4 binding to IgH enhancers and the TSS
same,antiproliferative effect,multiple myeloma cells,potent antiproliferative effect
same,MYC transcription,cMyc target genes; multiple myeloma cells treated with JQ1,early and sustained JQ1-induced suppression of MYC transcription
same,expression of cMyc target genes,"cMyc target genes; multiple myeloma cells treated with JQ1, genome-wide",genome-wide downregulation of cMyc target genes
